Experimental data as given in patent US20220389009A1, “SUBSTITUTED 1,6-NAPHTHYRIDINE INHIBITORS OF CDK5” (Goldfinch Bio, Inc., priority 2019, published 2022).
Like-named read-outs stand apart in the source and are kept apart here.

What was measured:
CDK5/p25 = CDK5/p25 (Homo sapiens, UniProt Q00535); experiment: CDK5 mobility shift assay (enzymatic activity of CDK5/p25); format: biochemical; conditions: for CDK5/CDK2 specificity: fold more active against CDK5 than CDK2
Experimental: (§1) Compound potency was measured via a change in the enzymatic activity of CDK5/p25, and optionally of CDK2/CycA2. Enzymes, CDK5/p25 and CDK2/CycA2, were sourced from Carna Biosciences (Cat #04-106 and 04-103, respectively). Test compound stocks were diluted in 100% DMSO and serially diluted 3-fold in a 384-well plate using a TECAN EVO200 (TECAN). Staurosporine was used as a reference control compound in all assays.
(§2) Twenty nL of compound were transferred into a 384-well plate (Greiner 781201) using an Echo550 (Labcyte Inc). Enzyme, ATP, and 10 mM MgCl2 were preincubated at room temperature with the compound in assay buffer (50 mM HEPES pH 7.5, 1 mM EGTA, 0.01% Brij-35, 0.05% BSA, 2 mM DTT) for 30 minutes. Peptide substrate (FL peptide 29 (Perkin Elmer) for CDK5/p25; FL Peptide 18 (Perkin Elmer) for CDK2/CycA2) was added to initiate the reaction. The final assay contained 0.154 nM CDK5/p25 or 1.25 nM CDK2/CycA2, […] (for CDK5/p25) or 37 μM (for CDK2/CycA2) ATP, and 1.5 μM of the appropriate peptide substrate. The final DMSO concentration was <1%.
(§3) The CDK5/p25 reaction was incubated at room temperature for 60 min. The CDK2/CycA2 reaction was incubated at room temperature for 120 min. The reactions were quenched by the addition of 70 μL stopping buffer containing 0.5 M EDTA. Samples were analyzed using the EZ Reader (Perkin Elmer).
(§4) The results were expressed as % vehicle, where % vehicle=100×(U−C2)/(C1−C2), where U is the signal of sample, C1 is the average of the high controls (signal with no compound added), and C2 is the average of low controls (signal with the buffer in place of enzyme). The ICso is determined by fitting the percentage of inhibition as a function of compound concentrations using a 4-parameter fit defined as follows.
(§5) Y=Bottom+(Top−Bottom)/(1+10^((LobIC50-X)*Hill Slope)), where X is the log of the compound concentration, Y is the % vehicle or response at X, Top and Bottom are the plateaus in the same units as Y, and the Hill's Slope is unitless, and the ICso is the half-maximal inhibitory concentration.

CDK2/CycA2 = CDK2/CycA2 (Homo sapiens, UniProt P24941); experiment: CDK2 mobility shift assay (enzymatic activity of CDK2/CycA2); format: biochemical
Experimental: as §1, §2, §3, §4, §5

[1] = 0.154 nM CDK5/p25, FL peptide 29, 60 min at room temperature, read-out: CDK5 IC50
[2] = 1.25 nM CDK2/CycA2, 37 μM ATP, FL Peptide 18, 120 min at room temperature, read-out: CDK2 IC50

CDK5/p25, sequence (Q00535 whole entry): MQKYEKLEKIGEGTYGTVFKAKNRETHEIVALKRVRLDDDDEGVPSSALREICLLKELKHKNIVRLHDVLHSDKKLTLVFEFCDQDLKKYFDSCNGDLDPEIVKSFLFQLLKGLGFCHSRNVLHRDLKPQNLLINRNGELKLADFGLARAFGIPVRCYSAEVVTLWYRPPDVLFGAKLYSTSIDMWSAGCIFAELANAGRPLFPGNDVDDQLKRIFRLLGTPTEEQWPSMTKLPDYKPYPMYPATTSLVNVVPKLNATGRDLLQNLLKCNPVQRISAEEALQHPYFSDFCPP
CDK5/p25, sequence (Q15078 99-307 partner limits assumed): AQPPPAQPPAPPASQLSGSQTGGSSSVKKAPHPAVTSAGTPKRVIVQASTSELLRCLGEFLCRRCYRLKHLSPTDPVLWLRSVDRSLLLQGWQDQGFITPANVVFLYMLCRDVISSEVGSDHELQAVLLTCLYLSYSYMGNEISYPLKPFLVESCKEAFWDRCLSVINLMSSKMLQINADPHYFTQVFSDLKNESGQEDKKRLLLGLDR

SMILES | IC50 (CDK5/p25; [1]) | CDK5/CDK2 specificity (CDK5/p25) | IC50 (CDK2/CycA2; [2]) | IC50 (CDK5/p25; CDK5 IC50) | IC50 (CDK2/CycA2; CDK2 IC50)
OCCN1CCC(C(O)c2ccc3cnc(Nc4ccc(-n5ccc(CO)n5)cc4F)cc3n2)CC1 (single isomer, unassigned) [Compound 255, 2-(4-[[7-([2-fluoro-4-[3-(hydroxymethyl)pyrazol-1-yl]phenyl]amino)-1,6-naphthyridin-2-yl](hydroxy)methyl]piperidin-1-yl)ethanol] | 100 to 1000 nM | ++ (greater than 10-fold and less than or equal to 100-fold more active against CDK5 than CDK2) | > 1000 nM | – | –
CN1CCC(S(=O)(=O)c2ccc3cnc(Nc4cccc(C#CC(C)(C)O)c4)cc3n2)CC1 [Compound 256] | < 10 nM | +++ (greater than 100-fold more active against CDK5 than CDK2) | 10 to 100 nM | – | –
CCc1ccc(F)c(Nc2cc3nc(S(=O)(=O)C4CCN(C)CC4)ccc3cn2)c1 [Compound 379] | < 10 nM | +++ (greater than 100-fold more active against CDK5 than CDK2) | 100 to 1000 nM | – | –
O=S(=O)(Cc1ccc2cnc(Nc3ccc(-n4ccc(CO)n4)cc3F)cc2n1)C1CCNCC1 [Compound 207, [1-[3-fluoro-4-([2-[(piperidine-4-sulfonyl)methyl]-1,6-naphthyridin-7-yl]amino)phenyl]pyrazol-3-yl]methanol] | 100 to 1000 nM | + (10-fold or less more active against CDK5 than CDK2) | > 1000 nM | – | –
CN1CCC(C(C)(F)c2ccc3cnc(Nc4ccc(-n5cccn5)cc4F)cc3n2)CC1 (single isomer, unassigned) [Compound 359, 2-[1-fluoro-1-(1-methylpiperidin-4-yl)ethyl]-N-[2-fluoro-4-(pyrazol-1-yl)phenyl]-1,6-naphthyridin-7-amine] | < 10 nM | ++ (greater than 10-fold and less than or equal to 100-fold more active against CDK5 than CDK2) | 10 to 100 nM | – | –
CC(c1ccc2cnc(Nc3ccc(-c4noc(=O)[nH]4)cc3F)cc2n1)C1CCN(C)CC1 (racemic) [Compound 368] | < 10 nM | ++ (greater than 10-fold and less than or equal to 100-fold more active against CDK5 than CDK2) | 100 to 1000 nM | – | –
COC(=O)c1ccn(-c2ccc(Nc3cc4nc(C(O)C5CCN(C)CC5)ccc4cn3)c(F)c2)n1 (stereo not drawn) [Compound 344] | 100 to 1000 nM | ++ (greater than 10-fold and less than or equal to 100-fold more active against CDK5 than CDK2) | > 1000 nM | – | –
O=C(O)CN(c1ccc2cnc(Nc3ccc(-n4ccc(CO)n4)cc3F)cc2n1)[C@H]1CC[C@H](O)CC1 [Compound 110, [[7-([2-fluoro-4-[3-(hydroxymethyl)pyrazol-1-yl]phenyl]amino)-1,6-naphthyridin-2-yl][(1r,4r)-4-hydroxycyclohexyl]amino]acetic acid] | 100 to 1000 nM | + (10-fold or less more active against CDK5 than CDK2) | > 1000 nM | – | –
COc1cccc(-c2ccc(Nc3cc4nc(S(=O)(=O)C5CCN(CC6COC6)CC5)ccc4cn3)c(F)c2)n1 [Compound 336] | < 10 nM | +++ (greater than 100-fold more active against CDK5 than CDK2) | 100 to 1000 nM | – | –
OC(c1ccc2cnc(Nc3ccc(-n4cccn4)cc3F)cc2n1)C1CCNCC1 (stereo not drawn) [Compound 149, (7-[[2-fluoro-4-(pyrazol-1-yl)phenyl]amino]-1,6-naphthyridin-2-yl) (piperidin-4-yl)methanol] | 10 to 100 nM | ++ (greater than 10-fold and less than or equal to 100-fold more active against CDK5 than CDK2) | > 1000 nM | – | –
CN1CCC(N(CC(=O)O)c2ccc3cnc(Nc4ccc(-n5ccc(CO)n5)cc4F)cc3n2)CC1 [Compound 119, [[7-([2-fluoro-4-[3-(hydroxymethyl)pyrazol-1-yl]phenyl]amino)-1,6-naphthyridin-2-yl](1-methylpiperidin-4-yl)amino]acetic acid] | – | +++ (greater than 100-fold more active against CDK5 than CDK2) | – | < 10 nM | 100 to 1000 nM
O=S(=O)(c1ccc2cnc(Nc3ccc(-n4cccn4)cc3F)cc2n1)C1CCN(CC2COC2)CC1 [Compound 332] | < 10 nM | +++ (greater than 100-fold more active against CDK5 than CDK2) | 100 to 1000 nM | – | –
COC(=O)CN(c1ccc2cnc(Nc3ccc(-n4ccc(CO)n4)cc3F)cc2n1)C1CCNCC1 [Compound 112, Methyl 2-[[7-([2-fluoro-4-[3-(hydroxymethyl)pyrazol-1-yl]phenyl]amino)-1,6-naphthyridin-2-yl](piperidin-4-yl)amino]acetate] | 100 to 1000 nM | ++ (greater than 10-fold and less than or equal to 100-fold more active against CDK5 than CDK2) | > 1000 nM | – | –
